From patent US11517577B2, “Fluorinated bile acid derivatives” (NZP UK LIMITED, priority 2018, dated 2022)
Like-named read-outs stand apart in the source and are kept apart here.

Key:
[1] = system: SHP expression in Huh7 cells; assay: qPCR of SHP (NR0B2) expression in Huh7 cells; assay type: cell-based, human; conditions: Huh7, 24 hours
Method: (§1) To assess specific changes in gene expression in response to the test compounds, precise quantification and analysis by quantitative real-time PCR (qPCR) was carried out. Mammalian tissue culture experiments involved seeding Hepatocellular carcinoma, (Huh7) cells, in 6 well plates at a concentration of 1×10^6 cells/well and incubating for 24 hours at 37° C. to allow attachment.
(§2) Testing in Huh7 cells and HepG2 cells was also carried out for Compound 14 in the same way as for Compound 2.
(§3) Total RNA was extracted using the RNAQUEOUS™ Total RNA Isolation kit (Ambion) and all reagents were provided in the kit or prepared according to manufacturer's instructions. For cultured cells, the medium was removed and cells were washed with 1×PBS to remove cellular debris and residual medium. Total RNA was extracted from fresh cells. For 1×10^6 cells, 350 μl lysis buffer was added directly to the well and cells were harvested by scraping with a pipette tip. Lysed cells were combined with an equal volume of 64% ethanol and mixed thoroughly by pipetting. The ethanol-lysate mix was transferred to a column and spun at 12,000×G for 1 minute and flow through discarded. […]
(§4) The ready-to-use reaction mastermix, ITAQ™ Universal SYBR® Green Supermix (Biorad) was used for all qPCR reactions. […] Melting curve analysis was performed straight after each run by increasing the temperature from 60° C. to 95° C. in 0.3° C. increments, and measuring fluorescence dissociation.
To quantify gene expression, the baseline-corrected Ct value was determined automatically by the qPCR system software (Applied Biosystems). Relative changes in gene expression were determined by the Livak, or ΔΔCt, method whereby the Ct values of target genes were normalised to Ct value of the reference gene, for both the samples treated with vehicle/untreated samples (control) and the samples treated with compound (test samples). […] And finally, the expression ratio was calculated using the equation 2^−ΔΔC^t. […]

[2] = system: CYP7A1 expression in HepG2 cells; assay: qPCR of CYP7A1 expression in HepG2 cells; assay type: cell-based, human; conditions: HepG2, 24 hours
Method: (§5) Compound 2 and OCA were also tested in the human hepatocellular carcinoma cell line, HepG2.
as §2
as §3, with “tip.” for “tip. Lysed cells were combined with an equal volume of 64% ethanol and mixed thoroughly by pipetting. The ethanol-lysate mix was transferred to a column and spun at 12,000×G for 1 minute and flow through discarded.”
as §4
(§6) To quantify gene expression, the baseline-corrected Ct value was determined automatically by the qPCR system software (Applied Biosystems). Relative changes in gene expression were determined by the Livak, or ΔΔCt, method whereby the Ct values of target genes were normalised to Ct value of the reference gene, for both the samples treated with vehicle/untreated samples (control) and the samples treated with compound (test samples). […]

[3] = system: TGFβ1 expression in HepG2 cells; assay: qPCR of TGFβ1 expression in HepG2 cells; assay type: cell-based, human; conditions: HepG2, 24 hours
Method: as §5, §2
as §3, with “tip.” for “tip. Lysed cells were combined with an equal volume of 64% ethanol and mixed thoroughly by pipetting. The ethanol-lysate mix was transferred to a column and spun at 12,000×G for 1 minute and flow through discarded.”
as §4, §6

TGR5 (GPBAR1) receptor = target: T1, TGR5 (GPBAR1) receptor (Homo sapiens, UniProt Q8TDU6); assay: HITHUNTER cAMP assay, agonist mode, TGR5 receptor; conditions: for Emax: read-out: Max Response; for agonist activity at the TGR5 receptor: statement in words on Table 2
T1 sequence (Q8TDU6 1-330): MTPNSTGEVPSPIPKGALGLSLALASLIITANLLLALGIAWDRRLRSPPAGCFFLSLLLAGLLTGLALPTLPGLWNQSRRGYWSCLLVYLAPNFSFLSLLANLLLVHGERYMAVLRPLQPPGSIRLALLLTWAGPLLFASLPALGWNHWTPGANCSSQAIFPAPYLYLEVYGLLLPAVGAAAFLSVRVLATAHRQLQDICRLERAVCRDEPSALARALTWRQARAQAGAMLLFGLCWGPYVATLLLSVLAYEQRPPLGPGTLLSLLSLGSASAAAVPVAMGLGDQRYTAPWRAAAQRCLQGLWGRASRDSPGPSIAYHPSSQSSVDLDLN
Method: 1. cAMP Hunter cell lines were expanded from freezer stocks according to standard procedures.
Cells were seeded in a total volume of 20 μL into white walled, 384-well microplates and incubated at 37° C. for the appropriate time prior to testing.
For agonist determination, cells were incubated with sample to induce response.
Media was aspirated from cells and replaced with 15 μL 2:1 HBSS/10 mM Hepes:cAMP XS+ Ab reagent.
Intermediate dilution of sample stocks was performed to generate 4× sample in assay buffer.
5 μL of 4× sample was added to cells and incubated at 37° C. or room temperature for 30 or 60 minutes. Vehicle concentration was 1%.
After appropriate compound incubation, assay signal was generated through incubation with 20 μL cAMP XS+ ED/CL lysis cocktail for one hour followed by incubation with 20 μL cAMP XS+ EA reagent for three hours at room temperature.
Microplates were read following signal generation with a PerkinElmer ENVISION™ instrument for chemiluminescent signal detection.
Compound activity was analyzed using CBIS data analysis suite (ChemInnovation, CA).
For Gs agonist mode assays, percentage activity is calculated using the following formula, where RLU is an abbreviation for relative light units:

[4] = target: T2, Human Farnesoid X Receptor (NR1H4, FXR) (Homo sapiens, UniProt Q96RI1); assay: FXR reporter assay, EC50 and efficacy (Indigo Biosciences luciferase reporter cells); assay type: cell-based; conditions: for Efficacy: maximum point on the dose response curve, GW4064 designated as 100%
T2 sequence (Q96RI1 1-486): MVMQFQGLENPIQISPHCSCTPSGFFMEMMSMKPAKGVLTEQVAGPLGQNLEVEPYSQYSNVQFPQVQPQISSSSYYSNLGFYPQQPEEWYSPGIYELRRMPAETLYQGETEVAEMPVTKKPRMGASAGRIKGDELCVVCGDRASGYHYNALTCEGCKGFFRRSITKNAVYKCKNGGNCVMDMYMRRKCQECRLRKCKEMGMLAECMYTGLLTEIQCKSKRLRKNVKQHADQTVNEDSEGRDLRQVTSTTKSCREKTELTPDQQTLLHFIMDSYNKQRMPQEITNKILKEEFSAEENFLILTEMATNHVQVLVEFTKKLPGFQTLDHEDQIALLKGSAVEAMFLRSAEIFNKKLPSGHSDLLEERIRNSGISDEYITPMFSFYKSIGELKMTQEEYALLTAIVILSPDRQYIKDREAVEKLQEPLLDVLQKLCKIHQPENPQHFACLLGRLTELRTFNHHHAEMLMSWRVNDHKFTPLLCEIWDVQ
Method: The compounds of the invention were assayed for agonist activity at the FXR receptor.
Dose-response assays were performed as described in the technical manual of the Human Farnesoid X Receptor (NR1H4, FXR) Reporter Assay System (Indigo Biosciences Human Farnesoid X Receptor (NR1H4, FXR) Reporter Assay System, Technical Manual (version 7.1b), at the World Wide Web (www)indiqobiosciences.com).
FXR reporter cells consisting of an FXR-responsive promoter gene functionally linked to the luciferase gene were defrosted and seeded into a 96-well plate and these cells were immediately dosed with the test compounds at different concentrations (10-0.05 μM) according to the manufacturer's protocol. […] Following this, the induction of luciferase activity, which is the measure of the agonist activity, was quantified by using luminometer (TECAN) according to the manufacturer's protocol.

[5] = system: OSTα expression in Huh7 cells; assay: qPCR of OSTα expression in Huh7 cells; assay type: cell-based, human; conditions: Huh7, 24 hours
Method: as §1, §2
Total RNA was extracted using the RNAQUEOUS™ Total RNA Isolation kit (Ambion) and all reagents were provided in the kit or prepared according to manufacturer's instructions. […]
as §4, §6

[6] = Xiao et al., 2017; cited from earlier work

| Structure (SMILES) | SHP expression levels ([1]; compound at its EC90 concentration) | CYP7A1 expression ([2]; compound at the EC50 concentration, versus vehicle control cells) | TGFβ1 expression ([3]; with increasing compound concentrations) | EC50 (TGR5 (GPBAR1) receptor) [µM] | Emax (TGR5 (GPBAR1) receptor) [%] | agonist activity at the TGR5 receptor (TGR5 (GPBAR1) receptor) | EC50 [4] [nM] | Efficacy [4] [%] | SHP expression levels increased ([1]; compound at EC50 concentration) [times] | SHP expression levels increased ([1]; higher value, printed again as 'EC50 concentration') [times] | Ostα mRNA increase in expression ([5]; compound at EC50 concentration) [fold] | Ostα mRNA increase in expression ([5]; compound at EC90 concentration) [fold] | CYP7A1 expression ([2]; with increasing concentrations of compound) | TGFβ1 expression levels ([3]; compound at its EC50 concentration) | EC50 ([4]; FXR reporter cells, 24 h incubation, normalized against EC50 of GW4064, assigned as […] nM) [nM] | liver:plasma concentration ratio [6] |
| --- | --- | --- | --- | --- | --- | --- | --- | --- | --- | --- | --- | --- | --- | --- | --- | --- |
| CC[C@H]1[C@@H](O)[C@@H]2[C@H](CC[C@]3(C)[C@@H]([C@H](C)CCC(=O)NS(=O)(=O)c4ccc(OC(F)(F)F)cc4)CC[C@@H]23)[C@@]2(C)CC[C@@H](O)[C@H](F)[C@@H]12 [Compound 14, N-(3α,7α-Dihydroxyl-4β-fluoro-6α-ethyl-5β-cholan-24-oyl)-p-trifluoromethoxy benzene sulfonamide] | more than doubled | significantly decreased | decline | > 100 | 0 | neither Compound 2 nor Compound 14 has agonist activity at the TGR5 receptor |  |  |  |  |  |  |  |  |  |  |
| CC[C@@H]1[C@@H]2[C@@H](F)[C@H](O)CC[C@]2(C)C2CC[C@@]3(C)C(CCC3[C@H](C)CCNC(=O)NS(=O)(=O)c3ccccc3)C2[C@@H]1O (stereo partly drawn) [Compound 2, N,N′-(3α,7α-Dihydroxyl-4β-fluoro-6α-ethyl-24-nor-5β-cholan-23-yl)-benzene sulfonyl urea] |  |  |  | > 100 | 0 | neither Compound 2 nor Compound 14 has agonist activity at the TGR5 receptor | 24 | 195 | 1.5 | 2.5 | 11 | 18 | downregulated | significant downregulation |  |  |
| CC[C@H]1[C@@H](O)[C@@H]2[C@H](CC[C@]3(C)[C@@H]([C@H](C)CCC(=O)NS(=O)(=O)c4ccc(C(F)(F)F)cc4)CC[C@@H]23)[C@@]2(C)CC[C@@H](O)[C@H](F)[C@@H]12 [Compound 18, N-(3α,7α-Dihydroxyl-4β-fluoro-6α-ethyl-5β-cholan-24-oyl)-4-trifluoromethylphenyl sulfonamide] |  |  |  |  |  |  |  | 148 |  |  |  |  |  |  | 15 | highest |
